Results taken from patent US20090270312A1, “HIV-I GP41 FUSION PEPTIDES FOR IMMUNOMODULALTION” (priority 2005, published 2009).
Residues, ends and D or L forms follow the SMILES beside them.

Assays:
lymph node cells (LNC) [1] = assay: Cell survival in culture with peptide; type: cell-based, rat; conditions: cells incubated with peptide
lymph node cells (LNC) [2] = assay: T-cell proliferation of mice LNC with MOG 35-55 peptide antigen; type: cell-based; conditions: MOG35-55 peptide
LNC from injected rats = assay: T cell immunity to the injected peptide: IFN-γ secretion of LNC incubated ex vivo with the same peptide; type: in vivo, rat
Excerpt: Cytokine assays. Supernatants were collected after 72 hr of stimulation, and rat IL-10 and IFNγ were quantified by enzyme-linked immunosorbent assay (ELISA) using Pharmingen's OPTEIA kit (Pharmingen, San Diego, USA) as described (Quintana et al., 2002). When needed, cytokine levels are expressed as percentage of cytokine inhibition relative to cytokine levels when no peptide is present. Otherwise, the cytokines are shown as pg/ml. The lower limits of detection for the experiments described in this paper were 15 pg/ml for IL-10 and IFNγ. Cytokine amounts were calculated based on calibration curves constructed using recombinant cytokines as standards.
Rats were injected with FP, a control peptide (V2E or IFFA) or PBS in the presence of Mt and IFA. Twenty six days later, LNC were collected and incubated ex vivo with FP, V2E, IFFA, or PBS, respectively, and their IFN-γ secretion level was determined. […] LNC (incubated with PBS). […] Thus, the immunosuppressive effect of FP is sequence and structure specific.

gp41 = gp41 (Human immunodeficiency virus type 1 group M subtype B, UniProt P04578); conditions: effect of incorporation of D amino acids; cited from earlier work
Sequence of gp41 (P04578 512-856): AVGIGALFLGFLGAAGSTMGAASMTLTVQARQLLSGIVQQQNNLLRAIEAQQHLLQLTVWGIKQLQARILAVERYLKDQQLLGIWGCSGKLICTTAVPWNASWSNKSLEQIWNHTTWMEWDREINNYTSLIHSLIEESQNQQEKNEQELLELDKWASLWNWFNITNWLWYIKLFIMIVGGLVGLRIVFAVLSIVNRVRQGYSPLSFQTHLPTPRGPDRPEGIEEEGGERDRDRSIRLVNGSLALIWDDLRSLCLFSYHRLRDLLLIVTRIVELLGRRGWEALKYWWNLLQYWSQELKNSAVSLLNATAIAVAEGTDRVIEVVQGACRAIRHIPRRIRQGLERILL

Lewis rats = assay: Adjuvant Arthritis (AA); type: in vivo, rat; conditions: 100 μg peptide in IFA with Mt at AA induction
Experimental: Induction and Assessment of Adjuvant Arthritis (AA). To test the effect of FP on T-cell activation in vivo, AA was used as a model system. AA was induced by injecting 50 μl of Mt suspended in IFA (0.5 mg/ml) at the base of the tail. At the time of AA induction, each rat also received 100 μg of FP or control peptide, or PBS dissolved in 50 μl of IFA and mixed with Mt/IFA used to induce AA. The day of AA induction was designated as day 0. Disease severity was assessed by direct observation of all 4 limbs in each animal. A relative score between 0 and 4 was assigned to each limb, based on the degree of joint inflammation, redness and deformity; thus the maximum possible score for an individual animal was 16 (Quintana et al., 2002). The mean AA score (±SEM) is shown for each experimental group. Arthritis was also quantified by measuring hind limb diameter with a caliper. Measurements were taken on the day of the induction of AA and 26 days later (at the peak of AA); the results are presented as the mean±SEM of the difference between the two values for all the animals in each group. The person who scored the disease was blinded to the identity of the groups.
AA was induced in rats as indicated above; at the time of AA induction, each rat also received 100 μg of IFFA or PBS dissolved in 50 μl of IFA and mixed with Mt/IFA used to induce AA. Disease severity was assessed as described above.

lymph node cells (LNC) [3] = assay: T-cell proliferation of LNC from Mt immunized rats ([methyl-3H]-thymidine incorporation); type: cell-based; conditions: rat LNC, PPD 25 μg/ml
Experimental: T-cell proliferation. T-cell proliferation assays were performed using either lymph node cells (LNC) or the A2b T cell line, which reacts with the Mt176-90 peptide. Popliteal and inguinal LNC were removed 26 days after the injection of Mt in incomplete Freund's adjuvant (IFA), when strong T cell responses to PPD and Mt176-90 are detectable (Quintana et al., 2002). LNC were cultured at a concentration of 2×10^5 cells per well; 5×10^4 A2b T cells were stimulated in the presence of irradiated 5×10^5 thymic antigen presenting cells (APC) per well, prepared as previously described (van Eden et al., 1985). The cells were plated in quadruplicates in 200 μl round bottom microtiter wells (Costar Corp., Cambridge, USA), with or without antigen, in the presence of various concentrations of the peptides under study. For some experiments, the cells were activated with immobilized anti-CD3 antibodies or PMA/ionomycin as described (Wang et al., 2002). Cultures were incubated for 72 hr at 37° C. in a humidified atmosphere of 7.5% CO2. T-cell responses were detected by the incorporation of [methyl-3H]-thymidine (Amersham, Buckinghamshire, UK; 1 μCi/well), added during the last 18 hr of incubation. The results of T cell proliferation experiments are shown as the % of inhibition of the T cell proliferation triggered by the antigenin the absence of HIV or control peptides. […]

Balb/c mice = assay: DTH response to oxazolone, dermal treatment; type: in vivo; conditions: 100 μg in 40 μl DMSO on the ear one hour after challenge, measured 24 h after challenge
Experimental: In other experiments, DTH response to oxazolone in the presence of FP and IFFA was measured. Female Balb/c mice (5 mice per group) were sensitized to the shaved abdominal skin with 100 microliter of 2% oxazolone dissolved in acetone/olive oil (4:1 vol/vol) applied topically, and 5 days later challenged with 20 microliter of 0.5% oxazolone in acetone/olive oil, 10 microliter administered to each side of the ear. One hour after stimulation, FP, IFFA (100 μg in 40 μl DMSO) or DMSO were administered to each side of the ear. A constant area of the ear was measured immediately before challenge and 24 h after challenge.

In the case of `CC[C@H](C)[C@H](NC(=O)CNC(=O)[C@@H](NC(=O)[C@H](C)N)C(C)C)C(=O)NCC(=O)N[C@@H](C)C(=O)N[C@@H](CC(C)C)C(=O)N[C@@H](Cc1ccccc1)C(=O)N[C@@H](CC(C)C)C(=O)NCC(=O)N[C@@H](Cc1ccccc1)C(=O)N[C@@H](CC(C)C)C(=O)NCC(=O)N[C@@H](C)C(=O)N[C@@H](C)C(=O)NCC(=O)N[C@@H](CO)C(=O)N[C@H](C(=O)N[C@@H](CCSC)C(=O)NCC(=O)N[C@@H](C)C(=O)N[C@@H](CCCNC(=N)N)C(=O)N[C@@H](CO)C(=O)N[C@@H](CCSC)C(=O)N[C@H](C(=O)N[C@@H](CC(C)C)C(=O)N[C@H](C(=O)N[C@H](C(=O)N[C@@H](CCC(N)=O)C(=O)N[C@@H](C)C(=O)N[C@@H](CCCNC(=N)N)C(=O)N[C@@H](CCC(N)=O)C(=O)N[C@@H](CC(C)C)C(=O)O)C(C)C)[C@@H](C)O)[C@@H](C)O)[C@@H](C)O` [FP], the “survival of cells in culture” value (lymph node cells (LNC) [1]) is reported as “the same survival in culture”.
With `CC[C@H](C)[C@H](NC(=O)CNC(=O)[C@H](CCC(=O)O)NC(=O)[C@H](C)N)C(=O)NCC(=O)N[C@@H](C)C(=O)N[C@@H](CC(C)C)C(=O)N[C@@H](Cc1ccccc1)C(=O)N[C@@H](CC(C)C)C(=O)NCC(=O)N[C@@H](Cc1ccccc1)C(=O)N[C@@H](CC(C)C)C(=O)NCC(=O)N[C@@H](C)C(=O)N[C@@H](C)C(=O)NCC(=O)N[C@@H](CO)C(=O)N[C@H](C(=O)N[C@@H](CCSC)C(=O)NCC(=O)N[C@@H](C)C(=O)N[C@@H](CCCNC(=N)N)C(=O)N[C@@H](CO)C(=O)N[C@@H](CCSC)C(=O)N[C@H](C(=O)N[C@@H](CC(C)C)C(=O)N[C@H](C(=O)N[C@H](C(=O)N[C@@H](CCC(N)=O)C(=O)N[C@@H](C)C(=O)N[C@@H](CCCNC(=N)N)C(=O)N[C@@H](CCC(N)=O)C(=O)N[C@@H](CC(C)C)C(=O)O)C(C)C)[C@@H](C)O)[C@@H](C)O)[C@@H](C)O` [V2E] the “survival of cells in culture” value (lymph node cells (LNC) [1]) was “the same survival in culture”.
For `CC[C@H](C)[C@H](NC(=O)[C@H](CS)NC(=O)[C@H](CCCNC(=N)N)NC(=O)[C@H](CC(C)C)NC(=O)[C@H](CC(C)C)NC(=O)[C@H](C)NC(=O)[C@H](CS)NC(=O)CNC(=O)CNC(=O)CNC(=O)[C@H](CC(C)C)NC(=O)[C@@H](N)C(C)C)C(=O)N1CCC[C@H]1C(=O)N[C@@H](C)C(=O)N[C@@H](CC(C)C)C(=O)N[C@@H](CC(=O)O)C(=O)N[C@@H](CO)C(=O)N[C@@H](CC(C)C)C(=O)N[C@H](C(=O)N1CCC[C@H]1C(=O)N[C@@H](C)C(=O)N[C@@H](CC(N)=O)C(=O)N[C@@H](CCC(=O)O)C(=O)N[C@@H](CC(=O)O)C(=O)O)[C@@H](C)O` [p277, reference compound] (H-VLGGGCALLRCIPALDSLTPANED-OH), the “survival of cells in culture” value (lymph node cells (LNC) [1]) was “the same survival in culture”.
With “AVGIGALF (Peptides derived of HIV-1 gp41) [FP1-8]” the “inhibition of antigen-specific T cell proliferation” value (shortened to “inhibition”) (lymph node cells (LNC) [2]) was “inhibit antigen-specific T cell proliferation”.
In the case of “AVGIGALFLGFLGAAGSTMGARSMTLTVQARQL [IFFA]”, the “ex vivo activation relative to FP” value (LNC from injected rats; LNC collected 26 days after injection) is given as “about ten fold more than FP”, the “ex vivo activation (IFN-γ secretion) of LNC by the injected peptide” value (LNC from injected rats; LNC collected 26 days after injection with Mt and IFA) is given as “highly reactive to IFFA ex vivo” and the “ability to inhibit gp41-mediated membrane fusion” value (gp41) is given as “does not affect its ability to inhibit gp41-mediated membrane fusion”. The “arthritis, clinical score” value (Lewis rats) was “milder arthritis”, the “inhibition” value (lymph node cells (LNC) [3]) was “inhibit antigen-specific T cell proliferation” and the “DTH reaction to oxazolone” value (Balb/c mice) was “inhibited the DTH reaction”.
With “GALFLGFLG (Peptides derived of HIV-1 gp41) [FP5-13]” the “inhibition” value (lymph node cells (LNC) [2]) was “inhibit antigen-specific T cell proliferation”.
